Measurements published in US11045456B2, “Compositions and methods for treating COPD and other inflammatory conditions” (Georgia State University Research Foundation, Inc., priority 2015, dated 2021).
Numbered stars: 1 amine (or outer) side, 2 acyl side, 3 side chain; on linkers, the order of the positions; unused ones are H or OH. Bridge positions count the residues as written; N and C are the ends. Square brackets hold non-standard residues; d marks the D form. Peptide text beside a SMILES is read from it. I, II: the chains in the order shown. Actinocin(9to1) = Cc1c2oc3c(C)ccc(C(=O)[*:1])c3nc-2c(C(=O)[*:2])c(N)c1=O; NMeV = CN[C@H](C(=O)O)C(C)C; Sar = CNCC(=O)O

How the values were obtained:
p65 = p65 phosphorylation by Phos-tag PAGE in BEAS-2B cells; format: cell-based, human
Experimental: Phos-tag PAGE. Recombinant p65 proteins or nuclear extracts recovered without EDTA/EGTA were separated by SDS-PAGE, with 6% gels containing 50 μM Mn^2+-Phos-tag Acrylamide and transferred to PVDF membrane according to the manufacture's instructions (Kinoshita et al., Mol. Cell. Proteomics 5(4):749-757, 2006.

PDE4B [1] = experiment: PDE4B mRNA expression (Q-PCR) in BEAS-2B cells stimulated with NTHi; format: cell-based, human; conditions: BEAS-2B; ActD 5 ng/ml and Rof 0.1 μM 1 hour, then 1.5-hour NTHi
Experimental: (§1) Bacterial strains and culture condition. Clinical isolates of NTHi strain 12 were used in this study (Ishinaga et al., EMBO J., 26(4):1150-1162, 2007). Bacteria were grown on chocolate agar plates at 37° C. in an atmosphere of 5% CO2 overnight and subsequently inoculated in brain heart infusion (BHI) broth supplemented with 3.5 μg/mL NAD and hemoglobin (BD Biosciences). After overnight incubation, the bacteria were subcultured into fresh broth and the log phase bacteria, monitored by measurement of optical density (OD) value, were washed and suspended in DMEM for in vitro cell experiments and in isotonic saline for in vivo animal experiments. For all in vitro experiments except the dose dependent experiment, NTHi was treated at multiplicity of infection (MOI) of 50.
(§2) Cell culture. All media described below were supplemented with 10% fetal bovine serum (Sigma-Aldrich). Human bronchial epithelial BEAS-2B cells were maintained in RPMI medium (Life Technologies) (ATCC® CRL-9609™). Human primary bronchial epithelial NHBE (Lonza) cells were maintained in bronchial epithelial growth media (BEGM) supplemented with BEGM SingleQuots (Jono et al., J. Biol. Chem. 277(47):45547-45557, 2002). BEAS-2B cells stably expressing human PDE4B2 (PDE4B2-stable cells) were obtained by plasmid transfection following Geneticin selection (300 μg/mL). Cells were cultured in a humidified atmosphere of 5% CO2 at 37° C.

[2] = test system: NTHi-induced inflammation; experiment: NTHi-induced inflammation in mouse lung (proinflammatory mediator mRNA, H&E staining); format: in vivo; conditions: DEX 2 mg/kg i.p. and Rof 5 mg/kg i.p. 2 h before NTHi 5×10^7 CFU/lung
Experimental: Mice and animal experiments. For NTHi-induced inflammation in C57BL/6J mice (7 weeks old), anaesthetized mice were intratracheally inoculated with NTHi at a concentration of 5×10^7 CFU per mouse and saline was inoculated as control.
. We pre-treated BEAS-2B cells with Rof (1 μM), FSK (1 μM), Iso (0.1 μM) and DEX (10 nM) for 1 h followed by 1.5 h stimulation with NTHi, and PDE4B mRNA expression was analyzed by Q-PCR (FIGS. 7A and 7B). We also pre-treated BEAS-2B cells with Rof (0.1 μM) and DEX (6.5 nM) for 1 h followed by 1.5 h stimulation with NTHi, and PDE4B2 mRNA expression was analyzed by semi-quantitative RT-PCR (FIG. 7C). To assess protein expression, BEAS-2B cells were pre-treated with Rof (0.1 μM) and DEX (100 nM) for 1 h followed by a 5 h stimulation with NTHi, and PDE4B protein expression was analyzed by immunoblot (FIG. 7D). Each target data were normalized with NTHi treated. Data are mean±SD (n=3); *p<0.05 vs NTHi; ^†p<0.05 vs Rof+NTHi. […] After 5 h, mRNA expression in lung tissues were analyzed by Q-PCR for assessing the expression of PDE4B or various proinflammatory mediators and lung tissues were stained against PDE4B (Magnification ×200, Scale bar, 100 μm) (FIG. 7F) and assessed for inflammation using H&E staining (FIG. 7H).

PDE4B [3] = experiment: PDE4B mRNA expression in lung tissues of NTHi-inoculated mice; conditions: mouse lung; DEX 2 mg/kg i.p. and Rof 5 mg/kg i.p. 2 h before NTHi; after 5 h
PDE4B2 = PDE4B2 expression (RT-PCR) in BEAS-2B cells; format: cell-based, human; conditions: for NTHi-induced PDE4B2 expression (synergy with NTHi): cAMP elevator / PKA or Epac activator with NTHi
Experimental: as §1, §2
Plasmids, transfections and luciferase assay. The expression plasmids, constitutively active forms of IKKα (IKKα-CA, S176E/S180E) and IKKβ (IKKβ-CA, S177E/S181E) and a dominant negative form of IκBα (IκBα-DN, S32A/S36A) were previously described (Shuto et al., Proc. Natl. Acad. Sci. USA, 98(15):8774-8779, 2001; Ishinaga et al., supra). Luciferase reporter construct of NF-κB (pGL4.32) was purchased from Promega. Human PDE4B2, p65 (RelA) and PKA-Cβ1/2 cDNA sequences were generated and inserted into the BamHI and HindIII sites of the pcDNA3.1/mycHis(−) vector. Mutant p65 and PDE4B2-D392A were generated by using PRIMESTAR® Max (Takara). Empty vector was used as a control and was also added where necessary to ensure an equivalent amount of input DNA. All transient transfections were carried out in triplicate using TRANSIT-LT1® reagent (Minis) following the manufacturer's instruction.

[4] = BEAS-2B cells, inhibitor treatment

O=S(=O)(NCCNC/C=C/c1ccc(Br)cc1)c1cccc2cnccc12 [H89]
phosphorylation of p65 induced by overexpression of PKA-Cβ1 (inhibition) (p65): inhibited

Cc1c2oc3c(C)ccc(C(=O)N[C@@H]4C(=O)N[C@H](C(C)C)C(=O)N5CCC[C@H]5C(=O)N(C)CC(=O)N(C)[C@@H](C(C)C)C(=O)O[C@@H]4C)c3nc-2c(C(=O)N[C@@H]2C(=O)N[C@H](C(C)C)C(=O)N3CCC[C@H]3C(=O)N(C)CC(=O)N(C)[C@@H](C(C)C)C(=O)O[C@@H]2C)c(N)c1=O [ActD, actinomycin D] (I: T[dV]P[Sar][NMeV] / II: T[dV]P[Sar][NMeV]; ester I:1-I:C, II:1-II:C; linker I:N-II:N via Actinocin(9to1))
PDE4B induction by NTHi and roflumilast (PDE4B [1]): completely abrogated

C[S+]([O-])c1ccc(-c2nc(-c3ccncc3)c(-c3ccc(F)cc3)[nH]2)cc1 (stereo not shown) [SB203580]
phosphorylation of p65 induced by overexpression of PKA-Cβ1 (inhibition) (p65): not

C[C@@H]1C[C@H]2[C@@H]3CCC4=CC(=O)C=C[C@]4(C)[C@@]3(F)[C@@H](O)C[C@]2(C)[C@@]1(O)C(=O)CO [Dexamethasone, dexamethasone]
efficacy of Rof in suppressing NTHi-induced inflammation [2]: improves the efficacy of Rof | PDE4B induction by NTHi and Rof (PDE4B [3]): suppresses

COc1cccc(-c2cc(=O)c3ccccc3o2)c1N [PD98059]
phosphorylation of p65 induced by overexpression of PKA-Cβ1 (inhibition) (p65): not

O=P1(O)OC[C@H]2O[C@@H](n3cnc4c(Nc5ccccc5)ncnc43)[C@@H](O)C2O1 (stereo partly shown) [6-Phe-cAMP, N^6-Phenyl-cAMP]
phosphorylation of p65 (induction) (p65; roflumilast as co-treatment with NTHi): induced this phosphorylation | NTHi-induced PDE4B2 expression (synergy with NTHi) (PDE4B2; BEAS-2B cells): synergistically enhanced | PDE4B2 expression (PDE4B2; in IKKβ-CA- but not IKKα-CA-transfected BEAS-2B cells): synergistically enhanced

Nc1ncnc2c1nc(Sc1ccc(Cl)cc1)n2[C@@H]1O[C@@H]2COP(O)(=S)O[C@H]2[C@H]1O (stereo partly shown) [Rp-8-CPT-cAMPS]
phosphorylation of p65 induced by co-treatment of roflumilast with NTHi (inhibition) (p65): inhibited

CO[C@@H]1[C@@H]2OP(=O)(O)OC[C@H]2O[C@H]1n1c(Sc2ccc(Cl)cc2)nc2c(N)ncnc21 [8-pCPT-2′-O-Me-cAMP]
NTHi-induced PDE4B2 expression (synergy with NTHi) (PDE4B2; BEAS-2B cells): did not markedly synergize

NC(=O)Nc1sc(-c2ccc(F)cc2)cc1C(N)=O [IKKβ inhibitor]
induction of PDE4B2 by roflumilast alone (PDE4B2; [4]): did not affect | synergistic induction of PDE4B2 by NTHi and roflumilast (PDE4B2; [4]): significantly inhibited
